Patent publication US20170266156A1, “METHOD FOR PREVENTING CANCER BY USING PHTHALIDES” (National Sun Yat-sen University, priority 2016, published 2017)

Biological target: hemoglobin (Hb) (Homo sapiens, UniProt P68871+P69905)
Test: oxygen equilibrium curves / P50 of hemoglobin treated with 2,3-BPG and phthalide compounds
Format: biochemical
Settings: for effect of phthalide compound together with 2,3-BPG (lowering the oxygen affinity of hemoglobin): FIG. 1
Text: The oxygen affinity of hemoglobin is commonly characterized by P50 value. The P50 value is the required oxygen partial pressure for hemoglobin to achieve 50% oxygen saturation.

hemoglobin (Hb), sequence (P69905 2-142 limits assumed): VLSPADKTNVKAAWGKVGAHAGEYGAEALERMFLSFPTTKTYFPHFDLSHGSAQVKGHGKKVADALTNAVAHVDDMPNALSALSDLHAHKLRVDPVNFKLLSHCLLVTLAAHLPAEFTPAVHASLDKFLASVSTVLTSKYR
hemoglobin (Hb), sequence (P68871 2-147 limits assumed): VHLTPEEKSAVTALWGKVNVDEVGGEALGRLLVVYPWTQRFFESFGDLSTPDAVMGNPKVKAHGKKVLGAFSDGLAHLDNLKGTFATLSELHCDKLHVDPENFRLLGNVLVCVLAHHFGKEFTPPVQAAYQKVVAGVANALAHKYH

CCC/C=C1\OC(=O)C2=C1CCC=C2 [Z-ligustilide]
effect of phthalide compound together with 2,3-BPG (lowering the oxygen affinity of hemoglobin): synergistic effect

O=C(O)C(COP(=O)(O)O)OP(=O)(O)O (centres unmarked) [2,3-BPG, 2,3-bisphosphorglycerate]
oxygen release efficiency of hemoglobin (1.2 mM 2,3-BPG, PO2 of 20 mmHg): 40%
oxygen saturation fraction of hemoglobin (1.2 mM 2,3-BPG, PO2 of 20 mmHg): approximately 60%
oxygen saturation fraction of hemoglobin (Hb) (12 mM 2,3-BPG, fixed oxygen partial pressure of 20 mmHg, 80% where no 2,3-BPG is present): 35%
oxygen release efficiency (12 mM 2,3-BPG, oxygen partial pressure 20 mmHg, 20% without 2,3-BPG): 65%
change of P50 value with 2,3-BPG concentration (FIG. 2, various 2,3-BPG concentrations up to 12.0 mM): higher
P50 value (approximately 4 mM 2,3-BPG, no phthalide compound): 18.8 mmHg

CCC/C=C1\OC(=O)C2=C1CC[C@@H](O)[C@@H]2O [senkyunolide I]
effect of phthalide compound together with 2,3-BPG (lowering the oxygen affinity of hemoglobin): synergistic effect
